Values quoted from earlier work as cited in article PMC3901259, “Characterisation of the Metabolites of 1,8-Cineole Transferred into Human Milk: Concentrations and Ratio of Enantiomers” (Metabolites, 2013).
Like-named read-outs stand apart in the source and are kept apart here.

What was measured:
rats = system: rats; set-up: method as in PMID 6068552; conditions: cited from earlier work
[1] = set-up: method as in PMID 22405404; conditions: cited from earlier work

CC12CCC(CC1)C(C)(C)O2 [1,8-cineole, 1,8-Cineole]
acute oral LD50 (rats): 2.5 g/kg bodyweight | Concentration of 1,8-cineole in human milk ([1]; sample A-1a (no odour), beyond calibration range, approximation): 2.43 µg/kg | 1,8-cineole: concentration calculated with the last calibration point (limit in parentheses) ([1]; sample A-1a (no odour)): < 13.65 µg/kg | Concentration of 1,8-cineole in human milk ([1]; sample A-1b (odour yes)): 134.72 µg/kg | Concentration of 1,8-cineole in human milk ([1]; sample B-1 (odour yes)): 399.39 µg/kg | Concentration of 1,8-cineole in human milk ([1]; sample B-2a (no odour)): 0.98 µg/kg | Concentration of 1,8-cineole in human milk ([1]; sample B-2b (odour yes)): 70.97 µg/kg | Concentration of 1,8-cineole in human milk ([1]; sample B-2c (no odour)): 14.82 µg/kg | Concentration of 1,8-cineole in human milk ([1]; sample C (no odour)): 13.56 µg/kg | Concentration of 1,8-cineole in human milk ([1]; sample D-1 (no odour), beyond calibration range, approximation): 5.75 µg/kg | 1,8-cineole: concentration calculated with the last calibration point (limit in parentheses) ([1]; sample D-1 (no odour)): < 10.59 µg/kg | Concentration of 1,8-cineole in human milk ([1]; sample D-2 (odour yes)): 226.09 µg/kg | Concentration of 1,8-cineole in human milk ([1]; sample E-1 (no odour), beyond calibration range, approximation): 3.19 µg/kg | 1,8-cineole: concentration calculated with the last calibration point (limit in parentheses) ([1]; sample E-1 (no odour)): < 13.18 µg/kg | Concentration of 1,8-cineole in human milk ([1]; sample E-2 (odour yes)): 504.93 µg/kg | Concentration of 1,8-cineole in human milk ([1]; sample F (no odour), two capsules, beyond calibration range, approximation): 20.23 µg/kg | 1,8-cineole: concentration calculated with the last calibration point (limit in parentheses) ([1]; sample F (no odour), two capsules): < 26.14 µg/kg | Concentration of 1,8-cineole in human milk ([1]; sample G (odour yes)): 194.46 µg/kg
